Reference: patent US12569457B2, “Coated beta hydroxybutyric acid crystal and methods for producing the same” (NANJING NUTRABUILDING BIO-TECH CO., LTD., priority 2021, dated 2026)

Test: Stability test of coated BHB free acid crystal pellets/granules vs BHB free acid crystal at 25° C./60% RH (moisture and dipolymer content)
Assay type: physicochemical
Description: The coated BHB free acid crystal pellets/granules were subjected to a controlled temperature of 25° C./60% RH. The products were subjected to stability testing at the following time intervals: 0 time, 3 months, 6 months, 9 months, and 12 months.
The preparation method of such coated BHB free acid crystal pellets/granules includes the following steps: • (1) Wet granulation: Mix 3 kg of BHB free acid crystals and 0.05 kg of microcrystalline fiber, add 0.06 kg of water for wet granulation to obtain wet materials. The stirring motor rotating speed of the wet granulator is adjusted to 45 r/min, the speed of the shearing head is 800 r/min and the feeding speed of the binder is 5 r/min; • (2) Extrusion: Extrude the wet material obtained in step (1) by the extruder with the sieve plate aperture of 0.8 mm, to obtain strip materials with the same diameter. The screw speed of the extruder is adjusted to 150 r/min. […] Obtain strip materials with the same diameter; • (3) Spheronization: Sphere the strip materials obtained in step (2) at the high speed through the spheronization device to get pellets/granules of the same size and good roundness. The rotation speed of the spheronization device is adjusted to 1000 r/min and the time of spheronization is 6 min; • (4) Drying: Dry the pellets/granules prepared in step (3) to get BHB free acid crystal pellets/granules. The drying temperature is adjusted to 35° C. and the drying time is 25 min; • (5) Coating: Coating the BHB free acid crystal pellets/granules prepared in step (4) by Wurster coater with coating material, which is dissolved in water or ethanol at a solid content of 20% for use. The air inlet speed of the Wurster coater is 25 Hz and the coating temperature is 38° C., and the feeding speed of the coating liquid is 2 r/min. Drying for 15 min after coating is completed to obtain the coated BHB free acid crystal.The coated BHB free acid crystal pellets/granules were subjected to a controlled temperature of 25° C./60% RH. The products were subjected to stability testing at the following time intervals: 0 time, 3 months, 6 months, 9 months, and 12 months.

Dipolymer Content (0 time): 0.38%
Moisture Content (0 time): 0.50%
Dipolymer Content (3 months): 1.42%
Moisture Content (3 months): 2.14%
Dipolymer Content (6 months): 4.29%
Moisture Content (6 months): 10.63%
Dipolymer Content (9 months): 10.65%
Moisture Content (9 months): 18.16%
Dipolymer Content (12 months): 29.07%
Moisture Content (12 months): 29.97%
SMILES: CC(O)CC(=O)O (stereo not drawn) [BHB Free Acid Crystal, beta hydroxybutyric acid]
